Laboratory results: ChEMBL document CHEMBL5126661, “Experimental and Computational Studies on the Biotransformation of Pseudopyronines with Human Cytochrome P450 CYP4F2” (2022)
Values after ≈ are worked out from the molar mass of the structure shown.

What was measured:
Format in all cases: functional
[1] = tested on: Staphylococcus aureus; test: Antibacterial activity against Staphylococcus aureus ATCC12600 assessed as inhibition of bacterial growth by broth microdilution method
[2] = tested on: Streptococcus mutans; test: Antibacterial activity against Streptococcus mutans ATCC25175 assessed as inhibition of bacterial growth by broth microdilution method
[3] = tested on: Staphylococcus epidermidis; test: Antibacterial activity against Staphylococcus epidermidis ATCC14990 assessed as inhibition of bacterial growth by broth microdilution method
[4] = tested on: Moraxella catarrhalis; test: Antibacterial activity against Moraxella catarrhalis ATCC25238 assessed as inhibition of bacterial growth by broth microdilution method

MIC [1]: 2.1 µg/mL (≈ 7.13 µM)
MIC [2]: 2.1 µg/mL (≈ 7.13 µM)
MIC [3]: 2.1 µg/mL (≈ 7.13 µM)
MIC [4]: 2.1 µg/mL (≈ 7.13 µM)
SMILES: CCCCCCCc1cc(O)c(CCCCCC)c(=O)o1 [PSEUDOPYRONINES B]
